Results taken from US20210032304A1, “FIBROBLAST GROWTH FACTOR ANALOGS AND USES THEREOF” (University of Florida Research Foundation, Inc., priority 2018, published 2021).
Residues, ends and D or L forms follow the SMILES beside them.

T1: FGFR-1 alpha IIIb, P11362
T1 chain: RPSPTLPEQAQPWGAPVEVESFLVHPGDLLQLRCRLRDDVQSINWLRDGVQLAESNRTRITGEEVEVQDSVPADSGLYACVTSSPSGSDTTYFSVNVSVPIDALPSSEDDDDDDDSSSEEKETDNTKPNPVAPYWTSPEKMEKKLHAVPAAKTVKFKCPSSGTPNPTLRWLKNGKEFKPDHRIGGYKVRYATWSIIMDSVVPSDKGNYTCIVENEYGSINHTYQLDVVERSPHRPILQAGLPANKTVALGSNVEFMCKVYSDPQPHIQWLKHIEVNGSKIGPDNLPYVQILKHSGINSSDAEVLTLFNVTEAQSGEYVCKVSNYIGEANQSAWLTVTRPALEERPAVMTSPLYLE

B1: FGF-PT (peptide)
chain: YRSRKYTSWYVALKR
modifications: not checked

Columns and labels:
[1] = system: radiation damage (sub-TBI) in Swiss male mice; experiment: Sub-TBI irradiation model, survival and body weight over 30 days; format: in vivo; details: for dose needed to gain survival benefit: sub-TBI NIH Swiss model
Method: 150 outbred stock (NIS) Swiss males (8-11 weeks) were subjected to 5 sub-TBI doses (0, 18, 19.5, 20.5, 21.5 Gy). Three single dosages of FGF-P were administered 24 hr post-IR (5.0, 10, and 20 mg/kg), and two single dosages of FGF-PT were administered 24 hr post-IR (10 and 20 mg/kg). One dosage of FGF2 (0.3 mg/kg) and a saline vehicle control was also administered. Animals were followed for signs of distress, survivors, and weight loss/gain for 30 days. Survivors at the end of 30 days were euthanized.
Radiation doses were chosen to bracket the highest dose with few or no deaths (LD20) and the lowest dose with few or no survivors (LD80), thus ensuring a range that includes the LD50 and statistically delivers the highest accuracy and precision per animal.

FGFR-1 alpha IIIc [2] = molecular target: T2, FGFR-1 alpha IIIc (Homo sapiens, UniProt P11362); experiment: SPR (Horiba XelPlex), receptor immobilised, analyte in flow; given as 'associative binding constants'
FGFR-2 alpha IIIc = FGFR-2 alpha IIIc (Homo sapiens, UniProt P21802); experiment: as above
[3] = molecular target: T1, FGFR-1 alpha IIIb, P11362; experiment: SPR (Horiba XelPlex), ratio to rhFGF2 on the same receptor
[4] = molecular target: T1, FGFR-1 alpha IIIb, P11362; experiment: SPR (Horiba XelPlex), receptor immobilised, analyte in flow; given as 'associative binding constants'
FGFR-1 alpha IIIc [5] = molecular target: T2, FGFR-1 alpha IIIc; experiment: SPR (Horiba XelPlex), ratio to rhFGF2 on the same receptor
[6] = 18 Gy sub-TBI, single dose 24 hr post-IR, different doses, 30 days
[7] = 19.5 Gy sub-TBI, all doses, single dose 24 hr post-IR
[8] = 20.5 Gy sub-TBI, many doses, particularly FGF-P 5-20 mg/kg

Molecule | survival [1, 7] | survival [1, 8] | dose needed to gain survival benefit [1] [mg/kg] | Kd (FGFR-1 alpha IIIc [2]) [nM] | also measured
CC(C)C[C@@H]1NC(=O)[C@H](C)NC(=O)[C@H](C(C)C)NC(=O)[C@H](Cc2ccc(O)cc2)NC(=O)[C@H](Cc2c[nH]c3ccccc23)NC(=O)[C@H](CO)NC(=O)[C@H]([C@@H](C)O)NC(=O)[C@H](Cc2ccc(O)cc2)NC(=O)[C@H](CCCCN)NC(=O)[C@H](CCCNC(=N)N)NC(=O)[C@H](CO)NC(=O)[C@H](CCCNC(=N)N)NC(=O)[C@H](Cc2ccc(O)cc2)NC(=O)[C@@H](N)CSSC[C@@H](C(=O)O)NC(=O)[C@H](CCCNC(=N)N)NC(=O)[C@H](CCCCN)NC1=O [FGF-PT] (HELM PEPTIDE1{C.Y.R.S.R.K.Y.T.S.W.Y.V.A.L.K.R.C}$PEPTIDE1,PEPTIDE1,1:R3-17:R3$$$V2.0; N-terminus and C-terminus assumed) | Improved survival | Improved survival | 10 | – | survival [1, 6]: Improved survival; weight recovery [1, 6]: weight recovery; weight recovery ([1]; 19.5 Gy sub-TBI, different doses, recovery after severe weight loss): weight recovery; weight recovery ([1]; 20.5 Gy sub-TBI, different doses, recovery after very severe weight loss): weight recovery
recombinant human basic FGF (rhFGF2) (from UniProt P09038 143-288) (ligand) | – | – | – | 0.83 | Kd (FGFR-2 alpha IIIc): 1.7 nM
rhFGF2: recombinant human basic FGF | Improved survival | Improved survival | 0.3 | – | –
B1 | – | – | – | 1000 | fold of binding constant against rhFGF2 [3]: 1000 fold; Kd [4]: 1500 nM; fold of binding constant against rhFGF2 (FGFR-1 alpha IIIc [5]): 1000 fold
